Results taken from US10799605B2 (3B PHARMACEUTICALS GMBH, priority 2014, dated 2020).
pEC50, pIC50: −log10 of the molar value. Where two headings read alike, the source gives them in different places.

Experiments:
HT29 cells = settings: 48 h
NTR1 [1] = target: T1, NTR1 (Homo sapiens (Human), UniProt P30989); experiment: Functional Ca2+ mobilisation assay (example part I); format: cell-based
Source text: Ca^2+ ions are usually kept at nanomolar levels in the cytosol of cells, and act in a number of signal transduction pathways as second messengers. […] Changes in calcium ion concentration in standard assay protocols can be readily detected with fluorescent dyes that emit light when changes in intracellular Ca^2+ ion concentration occur. Given the transient nature of these responses, they are often read with instrumentation that has ‘inject and read’ capability.
HT29 or NTR1-expressing HEK293 cells were trypsinized and seeded into black flat clear-bottom 96-well plates (Corning, Amsterdam, The Netherlands) at […] cells per well. After 24 h incubation at 37° C. and 5% CO2, cells were washed twice with wash buffer (130 mM NaCl, 5 mM KCl, 10 mM Hepes, 2 mM CaCl2, 10 mM Glucose, pH 7.4) and loaded with 100 μl of Ca5 dye (Molecular Devices, Biberach, Germany) for 1 h at 37° C. and 5% CO2. For agonist assays, serial dilutions of agonistic substances were added to the cells loaded with dye and the change of the fluorescent signal was recorded continually for approx. 90 s using a FlexStation II (Molecular Devices, Biberach, Germany). Addition of wash buffer served as a control. Thus, EC50 concentrations for each conjugate were computed and provided a measure for the potency of the substance. For antagonist assays, cells loaded with 100 μl of Ca5-dye were pre-incubated with serial dilutions of antagonistic substances for 30 min, before the EC80-concentration of agonist was added to the cells and the change of the fluorescent signal was recorded continually for approx. 90 s. Thus, IC50 concentrations were computed for each conjugate and provided a measure for the inhibitory activity of the conjugates at the NTR1.

CB1 (h) = CB1 (h) (Homo sapiens (Human), UniProt P21554); experiment: ExpresSProfile: cannabinoid receptor 1, agonist radioligand; format: binding; settings: Reference Compound
Sequence of CB1 (h) (P21554 whole entry): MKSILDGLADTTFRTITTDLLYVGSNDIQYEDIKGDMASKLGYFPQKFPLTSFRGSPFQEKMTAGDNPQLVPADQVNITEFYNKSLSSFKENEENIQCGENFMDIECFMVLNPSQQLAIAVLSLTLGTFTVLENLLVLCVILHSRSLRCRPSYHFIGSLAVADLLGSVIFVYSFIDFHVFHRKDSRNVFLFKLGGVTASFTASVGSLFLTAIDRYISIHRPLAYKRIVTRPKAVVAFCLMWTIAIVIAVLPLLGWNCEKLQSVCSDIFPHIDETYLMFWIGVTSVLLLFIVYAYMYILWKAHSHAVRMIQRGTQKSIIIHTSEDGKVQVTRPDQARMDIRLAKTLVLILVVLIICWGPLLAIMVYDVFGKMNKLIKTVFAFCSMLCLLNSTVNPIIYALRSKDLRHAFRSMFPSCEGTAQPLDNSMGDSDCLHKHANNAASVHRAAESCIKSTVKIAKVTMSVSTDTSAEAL

B1R = B1R (Homo sapiens (Human), UniProt P46663); experiment: Radioligand binding assay B1R (bradykinin B1 receptor); settings: read-out: Inhibition [at 100 nM, %]
Sequence of B1R (P46663 whole entry): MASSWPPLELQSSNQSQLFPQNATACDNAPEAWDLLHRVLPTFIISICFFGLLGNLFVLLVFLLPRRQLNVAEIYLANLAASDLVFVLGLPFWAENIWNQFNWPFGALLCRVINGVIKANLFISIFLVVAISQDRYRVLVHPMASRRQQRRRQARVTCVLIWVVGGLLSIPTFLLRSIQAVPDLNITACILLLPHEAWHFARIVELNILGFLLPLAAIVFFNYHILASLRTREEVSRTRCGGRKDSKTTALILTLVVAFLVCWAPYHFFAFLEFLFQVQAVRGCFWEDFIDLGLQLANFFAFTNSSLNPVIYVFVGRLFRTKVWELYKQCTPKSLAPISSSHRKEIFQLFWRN
Experimental: (§1) In order to determine the binding affinity of compounds comprising a radiolabel for B1R, a radioligand binding assay was carried out. A radioligand is a radioactive biochemical substance that is used for diagnosis or for research-oriented study of cellular receptor systems of the body. In […] systems it is often used to quantify the binding of a test molecule to the binding site of radioligand. The higher the affinity of the molecule, the more radioligand is displaced from the binding site. The amount of bound radioligand can be measured by scintillation counting and thereby quantified. This assay is commonly used to calculate binding constants of molecules to receptors.
The B1R radioligand binding assay was performed by Cerep (Celle l'Evescault, France; Catalog reference 1189) according to (Jones et al., Eur J Pharmacol, 1999, 374, 423-433). B1R was prepared from CHO cells recombinantly expressing the human receptor and incubated with 0.35 nM [^3H]desArg^10-KD and serial dilutions of the test compounds. After 60 min incubation at 4° C. and washing to remove unbound ligand, bound radioactivity was measured by scintillation counting.

B2 (h) = B2 (h) (Homo sapiens (Human), UniProt P30411); experiment: ExpresSProfile: bradykinin receptor 2, agonist radioligand; format: binding; settings: Reference Compound
Sequence of B2 (h) (P30411 whole entry): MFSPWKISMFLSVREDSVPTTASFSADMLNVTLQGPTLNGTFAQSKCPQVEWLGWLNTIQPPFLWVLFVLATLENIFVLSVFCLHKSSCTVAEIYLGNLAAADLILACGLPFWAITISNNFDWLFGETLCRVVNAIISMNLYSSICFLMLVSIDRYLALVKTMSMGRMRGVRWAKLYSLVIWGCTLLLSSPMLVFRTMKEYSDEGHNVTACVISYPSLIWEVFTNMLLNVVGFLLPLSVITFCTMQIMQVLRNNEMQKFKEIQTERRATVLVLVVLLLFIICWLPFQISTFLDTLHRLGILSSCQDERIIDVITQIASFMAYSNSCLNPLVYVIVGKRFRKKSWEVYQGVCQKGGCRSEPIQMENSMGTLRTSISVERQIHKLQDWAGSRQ

beta 1 (h) = beta 1 (h) (Homo sapiens (Human), UniProt P08588); experiment: ExpresSProfile: beta1 adrenergic receptor, agonist radioligand; format: binding; settings: Reference Compound
Sequence of beta 1 (h) (P08588 whole entry): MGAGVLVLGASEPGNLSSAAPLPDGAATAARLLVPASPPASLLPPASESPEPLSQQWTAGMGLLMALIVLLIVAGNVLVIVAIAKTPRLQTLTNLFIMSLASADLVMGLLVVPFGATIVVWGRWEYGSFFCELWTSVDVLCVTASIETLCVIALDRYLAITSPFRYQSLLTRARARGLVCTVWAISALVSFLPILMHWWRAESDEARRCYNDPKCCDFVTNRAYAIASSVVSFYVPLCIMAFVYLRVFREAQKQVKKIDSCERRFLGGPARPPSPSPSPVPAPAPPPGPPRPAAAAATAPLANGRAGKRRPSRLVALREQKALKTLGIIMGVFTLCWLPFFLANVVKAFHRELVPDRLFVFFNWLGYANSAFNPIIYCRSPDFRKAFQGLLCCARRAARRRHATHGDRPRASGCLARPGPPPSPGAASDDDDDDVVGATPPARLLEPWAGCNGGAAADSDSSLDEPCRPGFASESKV

AT1 (h) = AT1 (h) (Homo sapiens (Human), UniProt P30556); experiment: ExpresSProfile: angiotensin receptor 1, antagonist radioligand; format: binding; settings: Reference Compound
Sequence of AT1 (h) (P30556 whole entry): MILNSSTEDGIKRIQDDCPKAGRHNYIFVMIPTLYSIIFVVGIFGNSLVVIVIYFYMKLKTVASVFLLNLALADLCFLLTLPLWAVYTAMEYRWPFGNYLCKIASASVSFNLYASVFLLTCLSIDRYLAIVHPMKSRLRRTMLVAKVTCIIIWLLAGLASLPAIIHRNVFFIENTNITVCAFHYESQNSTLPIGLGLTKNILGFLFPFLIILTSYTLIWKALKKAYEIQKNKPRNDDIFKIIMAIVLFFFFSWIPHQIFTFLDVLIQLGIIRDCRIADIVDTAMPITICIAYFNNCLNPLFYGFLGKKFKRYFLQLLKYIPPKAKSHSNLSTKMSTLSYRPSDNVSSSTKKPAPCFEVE

BZD (central) = experiment: ExpresSProfile: benzodiazepine, agonist radioligand; format: binding; settings: Reference Compound
D1 (h) = D1 (h) (Homo sapiens (Human), UniProt P21728); experiment: ExpresSProfile: dopamine receptor 1, antagonist radioligand; format: binding; settings: Reference Compound
Sequence of D1 (h) (P21728 whole entry): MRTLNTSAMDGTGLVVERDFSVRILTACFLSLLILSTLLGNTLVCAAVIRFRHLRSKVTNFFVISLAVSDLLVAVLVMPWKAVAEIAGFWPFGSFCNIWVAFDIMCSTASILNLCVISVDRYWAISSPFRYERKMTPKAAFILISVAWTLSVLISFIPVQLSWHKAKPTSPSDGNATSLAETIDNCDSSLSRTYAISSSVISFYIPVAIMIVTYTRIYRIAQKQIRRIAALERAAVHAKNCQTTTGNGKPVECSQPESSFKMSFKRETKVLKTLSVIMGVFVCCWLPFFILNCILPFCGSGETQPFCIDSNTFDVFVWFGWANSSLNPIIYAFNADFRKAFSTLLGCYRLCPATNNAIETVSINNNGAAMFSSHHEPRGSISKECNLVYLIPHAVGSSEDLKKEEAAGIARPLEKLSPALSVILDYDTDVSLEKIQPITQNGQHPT

CXCR2 (IL-8B) (h) = CXCR2 (IL-8B) (h) (Homo sapiens (Human), UniProt P25025); experiment: ExpresSProfile: C-X-C chemokine receptor type 2, agonist radioligand; format: binding; settings: Reference Compound
Sequence of CXCR2 (IL-8B) (h) (P25025 whole entry): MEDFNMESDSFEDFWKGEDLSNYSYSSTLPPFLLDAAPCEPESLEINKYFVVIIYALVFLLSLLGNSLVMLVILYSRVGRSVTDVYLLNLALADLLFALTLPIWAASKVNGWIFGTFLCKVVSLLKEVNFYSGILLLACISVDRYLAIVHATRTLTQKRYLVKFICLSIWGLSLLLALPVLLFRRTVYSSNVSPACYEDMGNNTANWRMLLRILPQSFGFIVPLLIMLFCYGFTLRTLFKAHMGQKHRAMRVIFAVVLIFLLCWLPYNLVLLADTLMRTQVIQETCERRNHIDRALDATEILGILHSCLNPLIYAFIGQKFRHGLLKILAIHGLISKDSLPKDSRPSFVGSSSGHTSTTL

alpha 2 (non-selective) = experiment: ExpresSProfile: alpha2 adrenergic receptor, antagonist radioligand; format: binding; settings: Reference Compound
NTR1 [2] = target: T1, NTR1; experiment: Radioligand binding assay NTR1 (example part II); settings: 0.05 nM 125I-(Tyr3-neurotensin), 60 min at 4° C.; read-out: IC50 [nM] RLB
Experimental: as §1, with “NTR1,” for “B1R,”
The NTR1 radioligand binding assay was performed by Cerep (Celle l'Evescault, France; Catalog reference 0109) according to Vita et al., FEBS Lett., 1993, 317, 139-142. NTR1 was prepared from CHO cells recombinantly expressing the human receptor and incubated with 0.05 nM ^125I-(Tyr^3-neurotensin) and serial dilutions of the test compounds. […] The result for each test compound is expressed as IC50 concentration and provides a measure for the affinity of the test compound for NTR1.

[3] = Plasma stability assay, mouse plasma; format: in vitro ADME
Experimental: (§2) The plasma stability assay was performed to measure the degradation of compounds of the present invention in plasma. This is an important characteristic of a compound as compounds, with the exception of pro-drugs, which rapidly degrade in plasma generally show poor in vivo efficacy.
(§3) The plasma was spiked with a 10 mM analyte solution in dimethyl sulfoxide to a final concentration of 10 μM, vortexed, and aliquotted to 50 μl samples. Two aliquots were stored at −20° C. until further treatment. Another two aliquots were incubated using an Eppendorf Thermomixer at 37° C. for 1, 4, and 24 hours. Sample clean-up was performed using a protein precipitation plate (Phenomenex Strata Impact, 64722-1-324-1) and using acetonitrile as precipitation agent. […] An aliquot of 10 μl was diluted with 90 μl 0.1% aqueous trifluoroacetic acid solution. The determination of the analyte in the clean sample solutions was performed on a Thermo TSQ Quantum Ultra triple quadrupole mass spectrometer equipped with a thermo Surveyor HPLC. The chromatographic separation was carried out on a Phenomenex Kinetex XB-C18 HPLC column (50×2 mm, […] particle size) with gradient elution using a mixture of 0.01% trifluoroacetic acid and 0.05% formic acid in water as eluent A and methanol as eluent B (20% B to 100% in 8 min, 400 μl/min, 40° C.). For mass spectrometric detection the selected reaction monitoring (SRM) was used.
(§4) Quantitation was performed by external matrix calibration using an internal standard.

NTR1 [4] = target: T1, NTR1; experiment: Functional Ca2+ mobilisation assay (example part II); format: cell-based; settings: antagonist assay
Procedure, shortened: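 HT29 or NTR1-expressing HEK293 cells loaded with Ca5 dye for 1 h at 37 °C in buffer at pH 7.4, and fluorescence recorded for about 90 s after addition. EC50 derived from agonist serial dilutions; IC50 from antagonists pre-incubated 30 min before an EC80 agonist challenge.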

[5] = Plasma stability assay, human plasma; format: in vitro ADME
Experimental: as §2, §3, §4

D2S (h) = D2S (h) (Homo sapiens (Human), UniProt P14416); experiment: ExpresSProfile: dopamine receptor 2S, antagonist radioligand; format: binding
Sequence of D2S (h) (P14416 other isoform, or with tags, fused parts or gaps): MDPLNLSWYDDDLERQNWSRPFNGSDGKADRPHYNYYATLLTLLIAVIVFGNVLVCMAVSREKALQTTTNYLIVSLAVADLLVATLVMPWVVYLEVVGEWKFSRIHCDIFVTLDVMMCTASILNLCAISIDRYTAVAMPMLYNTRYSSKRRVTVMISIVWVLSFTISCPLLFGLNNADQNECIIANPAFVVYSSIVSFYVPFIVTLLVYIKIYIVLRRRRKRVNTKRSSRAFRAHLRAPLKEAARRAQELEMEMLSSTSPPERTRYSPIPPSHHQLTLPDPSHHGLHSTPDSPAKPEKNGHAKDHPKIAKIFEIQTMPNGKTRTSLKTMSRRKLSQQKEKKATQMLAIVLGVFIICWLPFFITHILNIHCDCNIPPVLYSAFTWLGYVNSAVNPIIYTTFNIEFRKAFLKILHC

GABA (non-selective) = experiment: ExpresSProfile: GABA, agonist radioligand; format: binding; settings: Reference Compound

T1 sequence (P30989 whole entry): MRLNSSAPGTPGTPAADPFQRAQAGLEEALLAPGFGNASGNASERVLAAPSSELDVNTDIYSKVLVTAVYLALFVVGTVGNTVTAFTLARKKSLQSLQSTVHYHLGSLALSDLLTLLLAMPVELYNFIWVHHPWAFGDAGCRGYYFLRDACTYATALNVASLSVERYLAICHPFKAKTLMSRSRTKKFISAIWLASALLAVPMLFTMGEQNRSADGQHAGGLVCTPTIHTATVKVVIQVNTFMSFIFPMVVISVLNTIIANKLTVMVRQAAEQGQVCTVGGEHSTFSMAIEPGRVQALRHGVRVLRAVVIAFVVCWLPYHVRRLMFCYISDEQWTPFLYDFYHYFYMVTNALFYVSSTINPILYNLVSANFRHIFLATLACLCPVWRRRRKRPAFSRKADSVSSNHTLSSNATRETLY

## COc1cccc(OC)c1-c1cc(C(=O)NC2(C(=O)O)C3CC4CC(C3)CC2C4)nn1-c1ccc(C(=O)N(C)CCCN(C)CCCN(C)C(=O)CCCC(=O)NCCCCC(NC(=O)CCC(=O)NCCCOCCOCCOCCCNC(=O)C(CCCCNC(=O)CCC(=O)O[C@@H](C(=O)O[C@H]2C[C@@]3(O)[C@@H](OC(=O)c4ccccc4)[C@@H]4[C@]5(OC(C)=O)CO[C@@H]5C[C@H](O)[C@@]4(C)C(=O)[C@H](OC(C)=O)C(=C2C)C3(C)C)[C@@H](NC(=O)c2ccccc2)c2ccccc2)NC(=O)CCC(=O)NCCCOCCOCCOCCCNC(=O)CCCC(=O)N(C)CCCN(C)CCCN(C)C(=O)c2ccc(-n3nc(C(=O)NC4(C(=O)O)C5CC6CC(C5)CC4C6)cc3-c3c(OC)cccc3OC)c(C(C)C)c2)C(N)=O)cc1C(C)C (stereo partly shown) [(20), 1206-Glutar-Ttds-Lys(Taxol-Succinyl)-Ttds-(ε-Lys-NH2)-Glutar-1206]
HT29 cells; HT29 cells, LDH in supernatant
  Concentration [μM] at 20% cytotoxicity: 18 µM
NTR1 [1]
  pEC50: < 4.30
  pIC50: 7.49

## CCCCCCC(C)(C)c1ccc([C@@H]2C[C@H](O)CC[C@H]2CCCO)c(O)c1 [CP 55940]
CB1 (h)
  nH Ref: 0.8

## CC(=O)O[C@H]1C(=O)[C@@]2(C)[C@H]([C@H](OC(=O)c3ccccc3)[C@]3(O)C[C@H](OC(=O)[C@H](O)[C@@H](NC(=O)c4ccccc4)c4ccccc4)C(C)=C1C3(C)C)[C@]1(OC(C)=O)CO[C@@H]1C[C@@H]2O [Paclitaxel, reference compound]
HT29 cells; human
  Concentration [μM] at 20% cytotoxicity: 70 µM

## CC[C@H](C)[C@H](NC(=O)[C@@H](Cc1ccc2ccccc2c1)NC(=O)[C@H](CO)NC(=O)[C@](C)(Cc1ccccc1)NC(=O)CNC(=O)[C@@H]1CCCN1C(=O)[C@@H]1C[C@@H]2CCCC[C@@H]2N1C(=O)[C@H](CCCNC(=N)N)NC(=O)[C@H](CCCN)NC(=O)CCC(=O)NCCCOCCOCCOCCCNC(=O)[C@H](CCCCNC(=O)CN1CCN(CC(=O)O)CCN(CC(=O)O)CCN(CC(=O)O)CC1)NC(=O)CCC(=O)NCCCOCCOCCOCCCNC(=O)CCCC(=O)N(C)CCCN(C)CCCN(C)C(=O)c1ccc(-n2nc(C(=O)NC3(C(=O)O)C4CC5CC(C4)CC3C5)cc2-c2c(OC)cccc2OC)c(C(C)C)c1)C(=O)O (stereo partly drawn) [(27), 1206-Glutar-Ttds-Lys(DOTA)-Ttds-GABA-Orn-Arg-Oic-Pro-Gly-Amf-Ser-nal-Ile-OH]
B1R
  inhibition at 0.1 µM: 17%

## N=C(N)NCCC[C@@H](N)C(=O)N[C@@H](CCCNC(=N)N)C(=O)N1CCC[C@H]1C(=O)N1C[C@H](O)C[C@H]1C(=O)NCC(=O)N[C@@H](Cc1ccccc1)C(=O)N[C@@H](CO)C(=O)N[C@H](Cc1ccccc1)C(=O)N[C@@H](Cc1ccccc1)C(=O)N[C@@H](CCCNC(=N)N)C(=O)O [NPC 567]
B2 (h)
  nH Ref: 0.9

## CC(C)NCC(O)COc1ccc(CC(N)=O)cc1 (stereo not shown) [atenolol]
Beta 1 (h)
  nH Ref: 0.9

## CNCC(=O)N[C@@H](CCCN=C(N)N)C(=O)N[C@H](C(=O)N[C@@H](Cc1ccc(O)cc1)C(=O)N[C@H](C(=O)N[C@@H](Cc1cnc[nH]1)C(=O)N1CCC[C@H]1C(=O)N[C@@H](C)C(=O)O)C(C)C)C(C)C [saralasin]
AT1 (h)
  nH Ref: 0.6

## CN1C(=O)CN=C(c2ccccc2)c2cc(Cl)ccc21 [diazepam]
BZD (central)
  nH Ref: 1.1

## CN1CCc2cc(Cl)c(O)cc2[C@@H](c2ccccc2)C1 [SCH 23390]
D1 (h)
  nH Ref: 0.9

## IL-8
CXCR2 (IL-8B) (h)
  nH Ref: 1.4

## COC(=O)[C@@H]1[C@H]2C[C@H]3c4[nH]c5ccccc5c4CCN3C[C@@H]2CC[C@@H]1O [yohimbine]
Alpha 2 (non-selective)
  nH Ref: 0.7

## COc1cccc(OC)c1-c1cc(C(=O)NC2(C(=O)O)C3CC4CC(C3)CC2C4)nn1-c1ccc(C(=O)N(CCCNC(=O)CN2CCN(CC(=O)O)CCN(CC(=O)O)CCN(CC(=O)O)CC2)CCCN(C)C)cc1C(C)C (stereo not shown) [(Va), 2-{[1-{4-[(3-DOTA-amino-propyl)-(3-dimethylamino-propyl)-carbamoyl]-2-isopropyl-phenyl}-5-(2,6-dimethoxy-phenyl)-1H-pyrazole-3-carbonyl]-amino}-adamantane-2-carboxylic acid]
NTR1 [2]
  IC50: 3.4 nM
[3]
  stability in mouse plasma: highly stable
[3]; 10 μM, 37° C., 24 h
  % remaining after 24 h incubation, Mouse plasma: >60%
NTR1 [4]
  IC50: 12.6 nM
[5]
  stability in human plasma: highly stable
[5]; 10 μM, 37° C., 24 h
  % remaining after 24 h incubation, Human plasma: >70%

## COc1cccc(OC)c1-c1cc(C(=O)NC2(C(=O)O)C3CC4CC(C3)CC2C4)nn1-c1ccc(C(=O)N(C)CCCN(C)CCCN(C)C(=O)CCCC(=O)NCCCOCCOCCOCCCNC(=O)CCC(=O)N[C@@H](CCCCNC(=O)CN2CCN(CC(=O)O)CCN(CC(=O)O)CCN(CC(=O)O)CC2)C(=O)NCCCOCCOCCOCCCNC(=O)CCC(=O)N[C@@H](CCCCN)C(=O)N[C@@H](CCCNC(=N)N)C(=O)N2CCC[C@H]2C(=O)N2C[C@H](O)C[C@H]2C(=O)NCC(=O)N[C@@H](CC2CCCCC2)C(=O)N[C@@H](CO)C(=O)N2CCC[C@H]2C(=O)N[C@@H](CC(C)C)C(=O)O)cc1C(C)C (stereo partly drawn) [(26), 1206-Glutar-Ttds-Lys(DOTA)-Ttds-GABA-Lys-Arg-Pro-Hyp-Gly-Cha-Ser-Pro-Leu-OH]
B1R
  inhibition at 0.1 µM: 20%

## (+)butaclamol
D2S (h)
  nH Ref: 1.0

## NCCCC(=O)O [GABA, γ-aminobutyric acid, reference compound]
GABA (non-selective)
  nH Ref: 0.8
